# According to patent US11147812B2, “Tyrosine analogues derivatives as Rho-kinase inhibitors” (Chiesi Farmaceutici S.p.A., priority 2017, dated 2021):
# Assays:
# [1] = molecular target: Rho kinase 1 (ROCK1) (Homo sapiens, UniProt Q13464); assay: In vitro Rho kinase inhibitory activity assay (ADP-Glo), ROCK1; assay type: biochemical; conditions: 10 μM ATP, 25° C., Ki by Cheng-Prusoff
# Method: (§1) The effectiveness of compounds of the present invention to inhibit Rho kinase activity can be determined in a 10 μl assay containing 40 mM Tris pH7.5, 20 mM MgCl2 0.1 mg/ml BSA, 50 μM DTT and 2.5 μM peptide substrate (Myelin Basic Protein) using an ADP-Glo kit (Promega). Compounds were dissolved in DMSO such that the final concentration of DMSO was 1% in the assay. All reactions/incubations are performed at 25° C. Compound (2 ul) and either Rho kinase 1 or 2 (4 μl) were mixed and incubated for 30 mins. Reactions were initiated by addition of ATP (4 μl) such that the final concentration of ATP in the assay was 10 μM. After a 1 hour incubation 10 μl of ADP-Glo Reagent was added and after a further 45 minute incubation 20 ul of Kinase Detection Buffer was added and the mixture incubated for a further 30 minutes. The luminescent signal was measured on a luminometer. […] Compounds were tested in dose-response format and the inhibition of kinase activity was calculated at each concentration of compound. To determine the IC50 (concentration of compound required to inhibit 50% of the enzyme activity) data were fit to a plot of % inhibition vs Log10 compound concentration using a sigmoidal fit with a variable slope and fixing the maximum to 100% and the minimum to 0%. To determine the Ki values the Cheng-Prusoff equation was utilized (Ki=IC50/(1+[S]/Km)
# [2] = molecular target: Rho kinase 2 (ROCK2) (Homo sapiens, UniProt O75116); assay: In vitro Rho kinase inhibitory activity assay (ADP-Glo), ROCK2; assay type: biochemical; conditions: 10 μM ATP, 25° C., Ki by Cheng-Prusoff
# Method: as §1
# Rho kinase 1 (ROCK1), sequence (Q13464 whole entry): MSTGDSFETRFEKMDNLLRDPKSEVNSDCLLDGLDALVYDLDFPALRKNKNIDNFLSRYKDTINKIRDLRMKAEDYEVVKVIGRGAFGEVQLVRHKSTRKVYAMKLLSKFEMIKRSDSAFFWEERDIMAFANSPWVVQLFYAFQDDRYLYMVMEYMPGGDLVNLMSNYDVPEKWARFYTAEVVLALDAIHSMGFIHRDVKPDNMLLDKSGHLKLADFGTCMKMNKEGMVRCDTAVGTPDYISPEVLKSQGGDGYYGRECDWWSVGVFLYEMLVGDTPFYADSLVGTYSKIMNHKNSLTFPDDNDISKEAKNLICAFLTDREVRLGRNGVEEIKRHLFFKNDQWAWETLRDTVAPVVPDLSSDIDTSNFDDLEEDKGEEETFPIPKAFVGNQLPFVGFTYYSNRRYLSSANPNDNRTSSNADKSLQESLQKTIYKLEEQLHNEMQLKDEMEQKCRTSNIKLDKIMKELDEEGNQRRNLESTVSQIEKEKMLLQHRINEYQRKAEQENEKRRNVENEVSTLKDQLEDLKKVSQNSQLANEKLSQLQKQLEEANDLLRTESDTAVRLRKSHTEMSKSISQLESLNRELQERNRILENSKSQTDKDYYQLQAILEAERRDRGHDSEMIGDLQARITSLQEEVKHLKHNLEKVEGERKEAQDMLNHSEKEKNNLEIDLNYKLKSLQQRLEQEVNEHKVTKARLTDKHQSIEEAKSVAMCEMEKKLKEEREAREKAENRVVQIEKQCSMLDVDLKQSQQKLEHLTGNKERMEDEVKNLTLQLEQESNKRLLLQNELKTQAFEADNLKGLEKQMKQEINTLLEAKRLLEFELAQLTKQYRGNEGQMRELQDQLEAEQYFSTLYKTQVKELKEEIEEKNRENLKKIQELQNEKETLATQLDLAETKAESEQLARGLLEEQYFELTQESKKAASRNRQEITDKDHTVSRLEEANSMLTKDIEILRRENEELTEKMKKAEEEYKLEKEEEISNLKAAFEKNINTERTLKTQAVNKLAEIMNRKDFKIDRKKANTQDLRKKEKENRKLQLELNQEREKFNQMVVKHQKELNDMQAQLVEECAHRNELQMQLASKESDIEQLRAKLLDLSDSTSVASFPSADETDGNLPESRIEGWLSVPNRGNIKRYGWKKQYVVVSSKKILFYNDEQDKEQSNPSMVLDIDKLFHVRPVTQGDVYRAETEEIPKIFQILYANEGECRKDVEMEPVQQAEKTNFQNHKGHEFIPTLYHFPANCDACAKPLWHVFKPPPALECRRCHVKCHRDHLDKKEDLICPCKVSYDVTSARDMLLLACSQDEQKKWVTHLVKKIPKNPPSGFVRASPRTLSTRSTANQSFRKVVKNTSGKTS
# Rho kinase 2 (ROCK2), sequence (O75116 whole entry): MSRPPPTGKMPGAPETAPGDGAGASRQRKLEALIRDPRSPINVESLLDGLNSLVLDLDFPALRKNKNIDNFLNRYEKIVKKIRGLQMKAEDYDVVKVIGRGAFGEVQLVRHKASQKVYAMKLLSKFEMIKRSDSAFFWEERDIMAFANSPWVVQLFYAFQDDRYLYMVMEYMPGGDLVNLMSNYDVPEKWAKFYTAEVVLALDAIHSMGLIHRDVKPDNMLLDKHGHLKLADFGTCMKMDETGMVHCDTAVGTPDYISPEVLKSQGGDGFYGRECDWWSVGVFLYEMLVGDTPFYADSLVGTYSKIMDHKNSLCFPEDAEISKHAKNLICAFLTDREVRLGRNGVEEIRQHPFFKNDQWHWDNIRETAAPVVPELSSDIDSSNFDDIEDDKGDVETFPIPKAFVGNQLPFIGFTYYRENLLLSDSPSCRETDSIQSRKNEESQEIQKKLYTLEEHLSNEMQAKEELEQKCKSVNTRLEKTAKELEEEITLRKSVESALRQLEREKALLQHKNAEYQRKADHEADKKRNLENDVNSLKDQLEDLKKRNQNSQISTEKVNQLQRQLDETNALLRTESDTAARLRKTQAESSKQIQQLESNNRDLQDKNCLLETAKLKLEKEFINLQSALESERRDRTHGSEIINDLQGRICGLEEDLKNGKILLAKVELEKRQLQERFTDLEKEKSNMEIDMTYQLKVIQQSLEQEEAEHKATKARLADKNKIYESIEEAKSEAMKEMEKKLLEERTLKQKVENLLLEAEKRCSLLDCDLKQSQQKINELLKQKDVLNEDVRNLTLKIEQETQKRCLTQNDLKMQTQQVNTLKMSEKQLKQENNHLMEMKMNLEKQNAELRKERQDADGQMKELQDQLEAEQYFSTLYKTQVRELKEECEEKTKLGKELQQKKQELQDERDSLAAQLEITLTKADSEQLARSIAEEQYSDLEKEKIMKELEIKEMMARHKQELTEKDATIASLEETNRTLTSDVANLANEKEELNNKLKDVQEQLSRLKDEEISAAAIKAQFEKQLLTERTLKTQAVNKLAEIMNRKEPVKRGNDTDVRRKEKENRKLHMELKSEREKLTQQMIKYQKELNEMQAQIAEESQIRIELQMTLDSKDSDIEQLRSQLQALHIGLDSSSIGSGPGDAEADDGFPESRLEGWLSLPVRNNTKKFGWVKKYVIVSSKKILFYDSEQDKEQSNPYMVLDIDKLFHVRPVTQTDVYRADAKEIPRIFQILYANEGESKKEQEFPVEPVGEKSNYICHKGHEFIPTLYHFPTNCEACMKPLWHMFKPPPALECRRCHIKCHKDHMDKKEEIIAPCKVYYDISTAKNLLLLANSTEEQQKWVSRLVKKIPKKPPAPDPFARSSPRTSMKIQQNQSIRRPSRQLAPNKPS
Ki [1] [nM],Ki [2] [nM],Compound
> 30,> 30,"Cc1cc2c(Oc3ccc(CC(CN)C(=O)N4CCN(Cc5ccccc5)CC4)cc3)ccnc2[nH]1 (stereo not shown) [Example 6, 3-amino-1-(4-benzylpiperazin-1-yl)-2-(4-((2-methyl-1H-pyrrolo[2,3-b]pyridin-4-yl)oxy)benzyl)propan-1-one]"
> 30,> 30,"NC(C(=O)NC1CCOCC1)c1ccc(Oc2ccnc3[nH]ccc23)cc1 (stereo not shown) [Example 13, 2-(4-((1H-pyrrolo[2,3-b]pyridin-4-yl)oxy)phenyl)-2-amino-N-(tetrahydro-2H-pyran-4-yl)acetamide]"
3 to 30,3 to 30,"COCCCNC(=O)C(CN)Cc1ccc(Oc2ccnc3[nH]ccc23)cc1 (stereo not shown) [Example 35, 2-(4-((1H-pyrrolo[2,3-b]pyridin-4-yl)oxy)benzyl)-3-amino-N-(3-methoxypropyl)propanamide]"
3 to 30,3 to 30,"CN(C)CCCN1CNCC(Cc2ccc(Oc3ccnc4[nH]cc(C#N)c34)cc2)C1=O (stereo not shown) [Example 45, 4-(4-((1-(3-(dimethylamino)propyl)-6-oxohexahydropyrimidin-5-yl)methyl)phenoxy)-1H-pyrrolo[2,3-b]pyridine-3-carbonitrile]"
3 to 30,3 to 30,"NCC(Cc1ccc(Oc2ccnc3[nH]ccc23)cc1)C(=O)N1CCN(Cc2ccccc2)CC1 (single isomer, unassigned) [Example 32A, 2-(4-((1H-pyrrolo[2,3-b]pyridin-4-yl)oxy)benzyl)-3-amino-1-(4-benzylpiperazin-1-yl)propan-1-one]"
< 3,< 3,"NCC(Cc1ccc(Oc2ccnc3[nH]ccc23)cc1)C(=O)N1CCN(Cc2ccccc2)CC1 (stereo not shown) [Example 32, 2-(4-((1H-pyrrolo[2,3-b]pyridin-4-yl)oxy)benzyl)-3-amino-1-(4-benzylpiperazin-1-yl)propan-1-one]"
< 3,< 3,"Cc1c[nH]c2nccc(Oc3ccc(CC(CN)C(=O)N4CCN(C)CC4)cc3)c12 (stereo not shown) [Example 1, 3-amino-2-(4-((3-methyl-1H-pyrrolo[2,3-b]pyridin-4-yl)oxy)benzyl)-1-(4-methylpiperazin-1-yl)propan-1-one]"
< 3,< 3,"NCC(Cc1ccc(Oc2ccnc3[nH]ccc23)cc1)C(=O)N1CCN(Cc2ccccc2)CC1 (single isomer, unassigned) [Example 32B, 2-(4-((1H-pyrrolo[2,3-b]pyridin-4-yl)oxy)benzyl)-3-amino-1-(4-benzylpiperazin-1-yl)propan-1-one]"
3 to 30,3 to 30,"Cc1c[nH]c2nccc(Oc3ccc([C@H]4CCN[C@@H]4C(=O)NCCCN(C)C)cc3)c12 (racemic) [Example 26, rac-(2R,3S)-N-(3-(dimethylamino)propyl)-3-(4-((3-methyl-1H-pyrrolo[2,3-b]pyridin-4-yl)oxy)phenyl)pyrrolidine-2-carboxamide]"
< 3,< 3,"Cc1c[nH]c2nccc(Oc3ccc(C(N)CC(=O)N4CCN(Cc5ccccc5)CC4)cc3)c12 (single isomer, unassigned) [Example 7A, 3-amino-1-(4-benzylpiperazin-1-yl)-3-(4-((3-methyl-1H-pyrrolo[2,3-b]pyridin-4-yl)oxy)phenyl)propan-1-one]"
< 3,< 3,"Cc1c[nH]c2nccc(Oc3ccc(C(N)CC(=O)N4CCN(Cc5ccccc5)CC4)cc3)c12 (stereo not shown) [Example 7, 3-amino-1-(4-benzylpiperazin-1-yl)-3-(4-((3-methyl-1H-pyrrolo[2,3-b]pyridin-4-yl)oxy)phenyl)propan-1-one]"
3 to 30,3 to 30,"Cc1c[nH]c2nccc(Oc3ccc([C@H]4CCN[C@@H]4C(=O)NC4CCOCC4)cc3)c12 (racemic) [Example 24, rac-(2S,3R)-3-(4-((3-methyl-1H-pyrrolo[2,3-b]pyridin-4-yl)oxy)phenyl)-N-(tetrahydro-2H-pyran-4-yl)pyrrolidine-2-carboxamide]"
< 3,< 3,"Cc1c[nH]c2nccc(Oc3ccc(C(CN)CC(=O)N4CCN(Cc5ccccc5)CC4)cc3)c12 (stereo not shown) [Example 15, 4-amino-1-(4-benzylpiperazin-1-yl)-3-(4-((3-methyl-1H-pyrrolo[2,3-b]pyridin-4-yl)oxy)phenyl)butan-1-one]"
< 3,< 3,"CN1CCC(NC(=O)C(CN)Cc2ccc(Oc3ccnc4[nH]cc(C#N)c34)cc2)CC1 (stereo not shown) [Example 46, 3-amino-2-(4-((3-cyano-1H-pyrrolo[2,3-b]pyridin-4-yl)oxy)benzyl)-N-(1-methylpiperidin-4-yl)propanamide]"
< 3,< 3,"Cc1c[nH]c2nccc(Oc3ccc(CC(CN)C(=O)NC4CCCCC4)cc3)c12 (stereo not shown) [Example 31, 3-amino-N-cyclohexyl-2-(4-((3-methyl-1H-pyrrolo[2,3-b]pyridin-4-yl)oxy)benzyl)propanamide]"
< 3,< 3,"Cc1c[nH]c2nccc(Oc3ccc(CC(CN)C(=O)NC4CCCCC4)cc3F)c12 (stereo not shown) [Example 28, 3-amino-N-cyclohexyl-2-(3-fluoro-4-((3-methyl-1H-pyrrolo[2,3-b]pyridin-4-yl)oxy)benzyl)propanamide]"
< 3,< 3,"Cc1c[nH]c2nccc(Oc3ccc(CC(CN)C(=O)N4CCN(Cc5ccccc5)CC4)cc3F)c12 (single isomer, unassigned) [Example 29B, 3-amino-1-(4-benzylpiperazin-1-yl)-2-(3-fluoro-4-((3-methyl-1H-pyrrolo[2,3-b]pyridin-4-yl)oxy)benzyl)propan-1-one]"
> 30,> 30,"COCCCN1CNC(c2ccc(Oc3ccnc4[nH]cc(C)c34)cc2)CC1=O (stereo not shown) [Example 39, 3-(3-methoxypropyl)-6-(4-((3-methyl-1H-pyrrolo[2,3-b]pyridin-4-yl)oxy)phenyl)tetrahydropyrimidin-4(1H)-one]"
< 3,< 3,"Cc1c[nH]c2nccc(Oc3ccc(CC(CN)C(=O)N4CCN(Cc5ccccn5)CC4)cc3F)c12 (single isomer, unassigned) [Example 5B, 3-amino-2-(3-fluoro-4-((3-methyl-1H-pyrrolo[2,3-b]pyridin-4-yl)oxy)benzyl)-1-(4-(pyridin-2-ylmethyl)piperazin-1-yl)propan-1-one]"
< 3,< 3,"Cc1c[nH]c2nccc(Oc3ccc(CC(CN)C(=O)N4CCN(Cc5ccccn5)CC4)cc3F)c12 (stereo not shown) [Example 5, 3-amino-2-(3-fluoro-4-((3-methyl-1H-pyrrolo[2,3-b]pyridin-4-yl)oxy)benzyl)-1-(4-(pyridin-2-ylmethyl)piperazin-1-yl)propan-1-one]"
> 30,> 30,"CN(C)C(=O)C(N)c1ccc(Oc2ccnc3[nH]ccc23)cc1 (stereo not shown) [Example 12, 2-(4-((1H-pyrrolo[2,3-b]pyridin-4-yl)oxy)phenyl)-2-amino-N,N-dimethylacetamide]"
> 30,> 30,"CN1CCN(C(=O)C(N)c2ccc(Oc3ccnc4[nH]ccc34)cc2)CC1 (stereo not shown) [Example 11, 2-(4-((1H-pyrrolo[2,3-b]pyridin-4-yl)oxy)phenyl)-2-amino-1-(4-methylpiperazin-1-yl)ethanone]"
3 to 30,3 to 30,"Cc1c[nH]c2nccc(Oc3ccc(CC4CNCN(CCCN(C)C)C4=O)cc3F)c12 (stereo not shown) [Example 41, 3-(3-(dimethylamino)propyl)-5-(3-fluoro-4-((3-methyl-1H-pyrrolo[2,3-b]pyridin-4-yl)oxy)benzyl)tetrahydropyrimidin-4(1H)-one]"
